Data: US9303035B2, “Substituted pyrazino[1′,2′:1,2]pyrrolo[3,4-d]pyrimidines, pyrimido[4′,5′:3,4]pyrrolo[2,1-c][1,4]oxazines and pyrimido[4′,5′:3,4]pyrrolo[1,2-d][1,4]oxazepines for inhibiting the CFTR channel” (Novartis AG, priority 2012, dated 2016)

Biological target: CFTR (WT-CFTR channels stably expressed in CHO cells) (Homo sapiens (Human), UniProt P13569)
Assay: IonWorks Quattro CFTR inhibitor assay (whole-cell population patch clamp, forskolin-activated current)
Format: cell-based
Conditions: inward current (−100 mV); CHO cells stably expressing WT-CFTR; CFTR activated with 10 μM forskolin; 10 min compound incubation
Source text: CFTR activity can be quantified by electrophysiology methods, using the whole-cell configuration of the patch clamp technique (Hamill O, Marty A, Neher E, Sakmann B and Sigworth F. ‘Improved patch-clamp techniques for high resolution current recording from cells and cell-free membrane patches.’ Pflugers Archive 1981 391: 85-100). This assay directly measures the currents associated with chloride flow through CFTR channels whilst either maintaining or adjusting the transmembrane voltage. This assay can use either single glass micropipettes or parallel planar arrays to measure CFTR activity from native or recombinant cell systems. Currents measured using parallel planar arrays can be quantified using an appropriately equipped instrument such as the IonWorks Quattro (Molecular Devices Corporation, Sunnyvale, Calif.). The Quattro system can measure CFTR currents from either a single cell per recording well (HT configuration) or alternatively from a population of 64 cells per well (Population Patch Clamp PPC) (Finkel A, Wittel A, Yang N, Handran S, Hughes J, Costantin J. ‘Population patch clamp improves data consistency and success rates in the measurement of ionic currents.’ J Biomol Screen. 2006 August; 11(5):488-96).
Chinese hamster ovary (CHO) cells stably expressing WT-CFTR channels were used for the IonWorks Quattro experiments. Cells were maintained at 37° C. in 5% v/v CO2 at 100% humidity in MEM alpha medium supplemented with 10% (v/v) FCS, 100 U/mL Penicillin/Streptomycin, and 100 μg/L methotrexate. For experiments, cells were grown in 225 cm^2 tissue culture flasks until almost confluent. Cells were removed from the flask using trypsin-EDTA and resuspended in extracellular recording solution for immediate experimentation.
Cells, at a density of 1.5-2 million per mL, were placed on the Quattro system, added to the planar patch plate and seals allowed to establish for 5-10 mins. After assessing seal resistances (typically >50 MΩ), whole-cell access was obtained by perforation with 100 μg/mL amphotericin B. Baseline currents were measured by a pre-compound scan obtained by application of a voltage ramp from −100 to +100 mV. CFTR was activated by the addition of 10 μM forskolin to each of the 384 wells of the patch plate. After 5 min incubation the post-compound 1 currents were measured, again by application of a voltage ramp from −100 to +100 mV. Test compounds, diluted from 10 mM stocks in DMSO in extracellular solution were then added to the patch plate and were incubated for a further 10 min. The post-compound 2 currents were measured by the application of the same voltage ramp from −100 to +100 mV. The inhibition of CFTR was determined from the difference in current between the forskolin addition (post-compound 1) and the test compound (post-compound 2). This was determined at both −100 mV and +100 mV which represents the inward and outward current respectively.
Extracellular solution (ECS): 145 mM NaCl, 4 mM CsCl, 5 mM D-glucose, 10 mM TES, 1 mM CaCl2, 1 mM MgCl2, pH 7.4 NaOH
Intracellular solution (ICS): 113 mM L-Aspartic acid, 113 mM CsOH, 27 mM CsCl, 1 mM NaCl, 1 mM MgCl2, 1 mM EGTA, 10 mM TES. pH 7.2 with CsOH. Filter sterilized before use.

Chain of CFTR (WT-CFTR channels stably expressed in CHO cells) (P13569 whole entry): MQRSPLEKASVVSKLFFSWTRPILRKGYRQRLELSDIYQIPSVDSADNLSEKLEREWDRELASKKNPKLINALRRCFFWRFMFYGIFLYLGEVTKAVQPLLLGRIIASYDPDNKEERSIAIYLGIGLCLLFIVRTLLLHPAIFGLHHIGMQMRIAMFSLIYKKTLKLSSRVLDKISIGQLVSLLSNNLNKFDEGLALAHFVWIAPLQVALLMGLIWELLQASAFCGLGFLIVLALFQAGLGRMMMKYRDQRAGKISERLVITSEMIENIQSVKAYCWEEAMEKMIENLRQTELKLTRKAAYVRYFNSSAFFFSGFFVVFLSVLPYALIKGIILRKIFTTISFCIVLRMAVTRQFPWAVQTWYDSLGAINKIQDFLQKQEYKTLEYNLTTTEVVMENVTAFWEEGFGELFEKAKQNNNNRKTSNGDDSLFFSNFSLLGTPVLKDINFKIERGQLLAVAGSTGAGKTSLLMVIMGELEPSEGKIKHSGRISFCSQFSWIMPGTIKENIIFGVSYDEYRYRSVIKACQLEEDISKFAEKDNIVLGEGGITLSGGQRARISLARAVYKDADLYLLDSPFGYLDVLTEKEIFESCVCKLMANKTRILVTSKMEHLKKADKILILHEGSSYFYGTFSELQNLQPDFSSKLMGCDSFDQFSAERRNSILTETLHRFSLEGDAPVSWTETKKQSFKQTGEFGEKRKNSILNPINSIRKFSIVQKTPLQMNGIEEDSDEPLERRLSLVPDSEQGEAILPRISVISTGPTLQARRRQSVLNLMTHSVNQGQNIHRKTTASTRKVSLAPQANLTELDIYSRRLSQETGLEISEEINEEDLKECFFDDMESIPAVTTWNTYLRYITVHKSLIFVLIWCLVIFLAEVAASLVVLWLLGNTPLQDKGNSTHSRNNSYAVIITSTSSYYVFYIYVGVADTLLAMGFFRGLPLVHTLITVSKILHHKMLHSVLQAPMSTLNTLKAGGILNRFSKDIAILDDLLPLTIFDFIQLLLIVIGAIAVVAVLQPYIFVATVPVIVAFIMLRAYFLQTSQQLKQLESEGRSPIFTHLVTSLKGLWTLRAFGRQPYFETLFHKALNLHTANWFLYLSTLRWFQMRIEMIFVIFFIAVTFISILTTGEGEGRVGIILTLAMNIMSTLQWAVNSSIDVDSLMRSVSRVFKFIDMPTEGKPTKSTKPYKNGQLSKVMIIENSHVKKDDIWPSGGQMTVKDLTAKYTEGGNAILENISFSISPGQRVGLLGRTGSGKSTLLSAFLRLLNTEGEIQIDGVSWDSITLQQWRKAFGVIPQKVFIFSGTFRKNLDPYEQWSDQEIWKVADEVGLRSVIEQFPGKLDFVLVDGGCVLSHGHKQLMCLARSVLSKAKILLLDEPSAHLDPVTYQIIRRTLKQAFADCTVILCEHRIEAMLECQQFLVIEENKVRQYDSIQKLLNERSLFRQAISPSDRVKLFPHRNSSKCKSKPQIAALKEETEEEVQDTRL

| Compound | IC50 |
| --- | --- |
| Cc1ccc(C2NCCn3c(-c4ccccc4)c4c(=O)n(C)c(=O)n(C)c4c32)o1 (racemic) [Example 1.1, 1,3-Dimethyl-10-(5-methylfuran-2-yl)-5-phenyl-7,8,9,10-tetrahydropyrazino[1′,2′:1,2]pyrrolo[3,4-d]pyrimidine-2,4(1H,3H)-dione] | 4.64 µM |
| Cc1ccc(C2OCCn3c(-c4ccccc4)c4c(=O)n(C)c(=O)n(C)c4c32)o1 (racemic) [Example 4.1, 1,3-Dimethyl-10-(5-methylfuran-2-yl)-5-phenyl-7,8-dihydro-1H-pyrimido[4′,5′:3,4]pyrrolo[2,1-c][1,4]oxazine-2,4(3H,10H)-dione] | 4.23 µM |
| Cc1ccc([C@H]2NCCn3c(-c4ccccc4)c4c(=O)n(C)c(=O)n(C)c4c32)o1 (single isomer, unassigned) [Example 1.3] | > 30 µM |
| Cn1c(=O)c2c(-c3ccccc3)n3c(c2n(C)c1=O)C(c1nc(C(F)(F)F)cs1)NCC3 (single isomer, unassigned) [Example 2.4, 1,3-Dimethyl-5-phenyl-10-(4-(trifluoromethyl)thiazol-2-yl)-7,8,9,10-tetrahydropyrazino[1′,2′:1,2]pyrrolo[3,4-d]pyrimidine-2,4(1H,3H)-dione] | 4.98 µM |
| Cn1c(=O)c2c(-c3ccccc3)n3c(c2n(C)c1=O)C(C1CCCCC1)NCC3 (single isomer, unassigned) [Example 2.6, 10-Cyclohexyl-1,3-dimethyl-5-phenyl-7,8,9,10-tetrahydropyrazino[1′,2′:1,2]pyrrolo[3,4-d]pyrimidine-2,4(1H,3H)-dione] | 7.62 µM |
| Cn1c(=O)c2c(-c3cccc(C#N)c3)n3c(c2n(C)c1=O)C(c1ccc(Cl)o1)NCC3 (single isomer, unassigned) [Example 2.9, 3-(10-(5-chlorofuran-2-yl)-1,3-dimethyl-2,4-dioxo-1,2,3,4,7,8,9,10-octahydropyrazino[1′,2′:1,2]pyrrolo[3,4-d]pyrimidin-5-yl)benzonitrile] | 0.59 µM |
| Cc1ccc(C2OCCn3c(-c4ccccc4)c4c(=O)n(C)c(=O)n(C)c4c32)o1 (single isomer, unassigned) [Example 4.2, 1,3-dimethyl-10-(5-methylfuran-2-yl)-5-phenyl-7,8-dihydro-1H-pyrimido[4′,5′:3,4]pyrrolo[2,1-c][1,4]oxazine-2,4(3H,10H)-dione] | > 30 µM |
| Cc1ccc(C2OCCn3c(-c4ccccc4)c4c(=O)n(C)c(=O)n(C)c4c32)o1 (single isomer, unassigned) [Example 4.3, 1,3-dimethyl-10-(5-methylfuran-2-yl)-5-phenyl-7,8-dihydro-1H-pyrimido[4′,5′:3,4]pyrrolo[2,1-c][1,4]oxazine-2,4(3H,10H)-dione] | 3.16 µM |
| Cn1c(=O)c2c(-c3nc(CO)cs3)n3c(c2n(C)c1=O)C(c1ccc(Cl)o1)O[C@@H](CO)C3 (single isomer, unassigned) [Example 7.1a, 10-(5-Chlorofuran-2-yl)-8-(hydroxymethyl)-5-(4-(hydroxymethyl)thiazol-2-yl)-1,3-dimethyl-7,8-dihydro-1H-pyrimido[4′,5′:3,4]pyrrolo[2,1-c][1,4]oxazine-2,4(3H,10H)-dione] | 0.61 µM |
| Cn1c(=O)c2c(-c3cccc(C#N)c3)n3c(c2n(C)c1=O)[C@@H](c1nc(Cl)cs1)O[C@H](CO)C3 (single isomer, unassigned) [Example 9b, 3-(10-(4-Chlorothiazol-2-yl)-8-(hydroxymethyl)-1,3-dimethyl-2,4-dioxo-2,3,4,7,8,10-hexahydro-1H-pyrimido[4′,5′:3,4]pyrrolo[2,1-c][1,4]oxazin-5-yl)benzonitrile] | 8.06 µM |
| Cn1c(=O)c2c(-c3cccc(C#N)c3)n3c(c2n(C)c1=O)[C@H](c1ccc(Cl)o1)O[C@@H](CO)C3 (stereo in doubt) [Example 6.1, 3-(10-(5-chlorofuran-2-yl)-8-(hydroxymethyl)-1,3-dimethyl-2,4-dioxo-2,3,4,7,8,10-hexahydro-1H-pyrimido[4′,5′:3,4]pyrrolo[2,1-c][1,4]oxazin-5-yl)benzonitrile] | 0.24 µM |
| Cc1csc(-c2c3c(=O)n(C)c(=O)n(C)c3c3n2C[C@H](CO)O[C@H]3c2ccc(Cl)o2)n1 (stereo in doubt) [Example 7.0a, 10-(5-chlorofuran-2-yl)-8-(hydroxymethyl)-1,3-dimethyl-5-(4-methylthiazol-2-yl)-7,8-dihydro-1H-pyrimido[4′,5′:3,4]pyrrolo[2,1-c][1,4]oxazine-2,4(3H,10H)-dione] | 0.09 µM |
| Cn1c(=O)c2c(-c3cccc(Cl)c3)n3c(c2n(C)c1=O)[C@H](c1nc(Cl)cs1)O[C@@H](CO)C3 (stereo in doubt) [Example 8.0a, 5-(3-Chlorophenyl)-10-(4-chlorothiazol-2-yl)-8-(hydroxymethyl)-1,3-dimethyl-7,8-dihydro-1H-pyrimido[4′,5′:3,4]pyrrolo[2,1-c][1,4]oxazine-2,4(3H,10H)-dione] | 0.07 µM |
| Cn1c(=O)c2c(-c3cccc(Cl)c3)n3c(c2n(C)c1=O)[C@H](c1ccc(Cl)o1)O[C@@H](CO)C3 (stereo in doubt) [Example 8.1a, 10-(5-Chlorofuran-2-yl)-5-(3-chlorophenyl)-8-(hydroxymethyl)-1,3-dimethyl-7,8-dihydro-1H-pyrimido[4′,5′:3,4]pyrrolo[2,1-c][1,4]oxazine-2,4(3H,10H)-dione] | 0.12 µM |
| Cc1cccc(-c2c3c(=O)n(C)c(=O)n(C)c3c3n2C[C@H](C)O[C@H]3c2ccc(Cl)o2)c1 (stereo in doubt) [Example 12.1, 10-(5-chlorofuran-2-yl)-1,3,8-trimethyl-5-(m-tolyl)-7,8-dihydro-1H-pyrimido[4′,5′:3,4]pyrrolo[2,1-c][1,4]oxazine-2,4(3H,10H)-dione] | 5.07 µM |
| COC[C@@H]1Cn2c(-c3cccc(Cl)c3)c3c(=O)n(C)c(=O)n(C)c3c2[C@H](c2ccc(Cl)o2)O1 (stereo in doubt) [Example 12.2, 10-(5-chlorofuran-2-yl)-5-(3-chlorophenyl)-8-(methoxymethyl)-1,3-dimethyl-7,8-dihydro-1H-pyrimido[4′,5′:3,4]pyrrolo[2,1-c][1,4]oxazine-2,4(3H,10H)-dione] | 0.24 µM |
| CN(C)C[C@@H]1Cn2c(-c3cccc(Cl)c3)c3c(=O)n(C)c(=O)n(C)c3c2[C@H](c2ccc(Cl)o2)O1 (stereo in doubt) [Example 12.4, 10-(5-chlorofuran-2-yl)-5-(3-chlorophenyl)-8-((dimethylamino)methyl)-1,3-dimethyl-7,8-dihydro-1H-pyrimido[4′,5′:3,4]pyrrolo[2,1-c][1,4]oxazine-2,4(3H,10H)-dione] | 0.54 µM |
| Cc1ccc([C@@H]2NCCn3c(-c4ccccc4)c4c(=O)n(C)c(=O)n(C)c4c32)o1 [Example 1.2, (R)-1,3-Dimethyl-10-(5-methylfuran-2-yl)-5-phenyl-7,8,9,10-tetrahydropyrazino[1′,2′:1,2]pyrrolo[3,4-d]pyrimidine-2,4(1H,3H)-dione] | 1.58 µM |
| Cn1c(=O)c2c(-c3ccccc3)n3c(c2n(C)c1=O)C(c1nccs1)NCC3 (stereo not shown) [Example 1.7, 1,3-Dimethyl-5-phenyl-10-(thiazol-2-yl)-7,8,9,10-tetrahydropyrazino[1′,2′:1,2]pyrrolo[3,4-d]pyrimidine-2,4(1H,3H)-dione] | 5.42 µM |
| Cn1c(=O)c2c(-c3ccccc3)n3c(c2n(C)c1=O)C(c1nc(C(F)(F)F)cs1)NCC3 (stereo not shown) [Example 1.9, 1,3-Dimethyl-5-phenyl-10-(4-(trifluoromethyl)thiazol-2-yl)-7,8,9,10-tetrahydropyrazino[1′,2′:1,2]pyrrolo[3,4-d]pyrimidine-2,4(1H,3H)-dione] | 6.31 µM |
| CCc1ccc(C2NCCn3c(-c4ccccc4)c4c(=O)n(C)c(=O)n(C)c4c32)o1 (stereo not shown) [Example 1.10, 10-(5-Ethylfuran-2-yl)-1,3-dimethyl-5-phenyl-7,8,9,10-tetrahydropyrazino[1′,2′:1,2]pyrrolo[3,4-d]pyrimidine-2,4(1H,3H)-dione] | 6.37 µM |
| Cn1ccc(C2NCCn3c(-c4ccccc4)c4c(=O)n(C)c(=O)n(C)c4c32)n1 (stereo not shown) [Example 1.12, 1,3-Dimethyl-10-(1-methyl-1H-pyrazol-3-yl)-5-phenyl-7,8,9,10-tetrahydropyrazino[1′,2′:1,2]pyrrolo[3,4-d]pyrimidine-2,4(1H,3H)-dione] | 10.8 µM |
